In patent publication US6974681B1, “Cell culture performance with vanadate” (Immunex Corporation, priority 2002, dated 2005):
Where “and” joins values, the source holds several entries; their conditions need not be identical. Identical values can stand only once.

Columns and labels:
[1] = system: CHO cells expressing huTNFR-Fc; assay: Production of huTNFR-Fc measured by standard ELISA; assay type: cell-based, Chinese Hamster; conditions: NaButyrate 0.5 mM, culture without inducing agent normalized to 100%
Procedure: (§1) A second experiment was performed to test the effects of sodium orthovanadate on specific production of the recombinant polypeptide huTNFR-Fc, expressed from cells when compared to the same cells grown without vanadate. Flasks were inoculated at 2×10^6 cells/ml and were either grown without additional compounds or with sodium butyrate at 0.5 mM or sodium butyrate with sodium orthovanadate at 20 μM. Flasks were set up in an incubator at 31° C. Measurements for cell concentration and viability were taken using a hemacytometer and the trypan blue dye exclusion method and the results are shown in Table 2. Production of huTNFR-Fc was measured by standard ELISA.

[2] = system: CHO cells expressing huTNFR-Fc; assay: Cell concentration and viability (hemacytometer, trypan blue dye exclusion) of cultures expressing huTNFR-Fc with inducing agents; assay type: cell-based, Chinese Hamster; conditions: day 5, 31° C.
Procedure: as §1

[3] = system: Chinese Hamster Ovary (CHO) cell line genetically engineered to produce huTNFR:Fc; assay: Dose response of vanadate in shake flask cultures (viable cell density, viability); assay type: cell-based; conditions: day 5, shake flask, serum-free medium
Procedure: In this experiment, the effect of adding various concentrations of vanadate was tested in mammalian cell shake flask cultures. A Chinese Hamster Ovary (CHO) cell line that had been genetically engineered to produce huTNFR:Fc (a soluble form of the human tumor necrosis factor alpha receptor extracellular domain fused to an Fc polypeptide from an immunogolublin see in U.S. Pat. No. 5,945,397) was grown in serum-free medium. A dose response analysis was performed to determine an optimal dose for vanadate.

[4] = system: recombinant cell culture (expressing huTNFR-Fc); assay: Bioreactor culture (balanced feed experiment) with reduced IGF-1 plus vanadate, FIG. 1; assay type: cell-based; conditions: 25 µg/L IGF-1 with 20 μM sodium orthovanadate compared to 100 µg/L IGF-1 without vanadate
Procedure: FIG. 1. Addition of sodium orthovanadate to a recombinant cell culture (expressing huTNFR-Fc) reduces the requirement for IGF-1 to maintain viability in a balanced feed experiment. […]
(§2) Vanadate can also reduce the requirement for growth factors to maintain recombinant cell viability. […] At 5 ng/L with vanadate, IGF-1 is sufficient to maintain the same viability of recombinant polypeptide producing cells as 100 μg/L IGF-1 in the absence of vanadate.
The results from these experiments show how adding vanadate, in this case orthovanadate, can be applied in mammalian cell culture for a number of purposes. Cell viability is increased in cultures having 20 μM orthovanadate compared to cells grown without orthovanadate over a five day period (FIG. 1). In short, adding vanadate, such as orthovanadate, helps to create a more efficient mammalian cell culture process by reducing cell death, reducing the requirement of growth factors in the cell culture and increasing secreted polypeptide production.

Recombinant CHO Cells = assay: Effect of vanadate and reduced IGF-1 on recombinant CHO cells; assay type: cell-based, Chinese Hamster; set-up: cells/ml: scale not given here
Procedure: as §2

[5] = with sodium orthovanadate (+), IGF-1 5 ng/L
[6] = with sodium orthovanadate (+), IGF-1 100 μg/L
[7] = IGF-1 5 ng/L, without sodium orthovanadate (−)
[8] = IGF-1 100 μg/L, without sodium orthovanadate (−)

CCCC(=O)[O-].[Na+] [NaButyrate, sodium butyrate]
Specific Productivity [1]: 161% and 153%
Titer [1]: 140% and 125%
% Viability ([2]; NaButyrate 0.5 mM): 78%
VCD, ×10^6 ([2]; NaButyrate 0.5 mM): 5.547 ×10^6 and 5.067 ×10^6

[Na+].[Na+].[Na+].[O]=[V]([O-])([O-])[O-] [Vanadate, sodium orthovanadate]
% Viability ([3]; 10 uM vanadate): 80% and 89%
VCD, ×10^6 ([3]; 10 uM vanadate): 5.102 ×10^6 and 6.796 ×10^6
% Viability ([3]; 20 uM vanadate): 90%
VCD, ×10^6 ([3]; 20 uM vanadate): 5.8 ×10^6
% Viability ([3]; 35 uM vanadate): 87% and 90%
VCD, ×10^6 ([3]; 35 uM vanadate): 5.142 ×10^6 and 5.184 ×10^6
% Viability ([3]; 50 uM vanadate): 83% and 81%
VCD, ×10^6 ([3]; 50 uM vanadate): 4.136 ×10^6 and 3.625 ×10^6
% Viability ([2]; sodium butyrate 0.5 mM with sodium orthovanadate 20 μM (0.02 mM)): 95%
cell viability ([4]; after four days): improved
cell survival ([4]; after six days): markedly more cell survival
% viable (Recombinant CHO Cells; [5]): 73%
cells/ml (Recombinant CHO Cells; [5]): 4.916 cells/ml
% viable (Recombinant CHO Cells; [6]): 90%
cells/ml (Recombinant CHO Cells; [6]): 6.806 cells/ml

IGF-1: insulin like growth factor (IGF-1), growth factor added to the medium
% viable (Recombinant CHO Cells; [7]): 58%
cells/ml (Recombinant CHO Cells; [7]): 3.936 cells/ml
% viable (Recombinant CHO Cells; [8]): 74%
cells/ml (Recombinant CHO Cells; [8]): 5.825 cells/ml
